In the supplement of paper PMC10307832:

What was measured:
Assay in all cases: relative viability (nuclei count vs DMSO), 5 days (fraction); higher = more cells survive
[1] = system: PC-14
Summary of the method: (§1)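 For relative viability, nuclei counts in treated wells were divided by those in vehicle wells. Lung cancer cell lines had been pin-tool dosed in 1536-well plates the day after seeding and cultured for 5 days, then fixed and stained in one step (final 0.05% Triton X-100, 1% formaldehyde, 1 ug/ml Hoechst) and imaged at 4×. Doses were one drug alone or a fixed anchor-drug dose plus five library-drug doses (not always all listed) in √10 steps, and values are duplicate-plate medians.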

[2] = system: NCI-H23
Summary of the method: as §1

[3] = system: NCI-H2347
Summary of the method: as §1

[4] = system: NCI-H2087
Summary of the method: as §1

[5] = system: NCI-H1666
Summary of the method: as §1

[6] = system: 201T
Summary of the method: as §1

[7] = system: LCLC-97TM1
Summary of the method: as §1

[8] = system: NCI-H650
Summary of the method: as §1

[9] = system: LC-2-ad
Summary of the method: as §1

[10] = system: NCI-H2126
Summary of the method: as §1

[11] = system: NCI-H520
Summary of the method: as §1

[12] = system: ChaGo-K-1
Summary of the method: as §1

[13] = system: NCI-H647
Summary of the method: as §1

[14] = system: EPLC-272H
Summary of the method: as §1

[15] = system: HCC-78
Summary of the method: as §1

[16] = system: NCI-H661
Summary of the method: as §1

[17] = system: HCC-827
Summary of the method: as §1

[18] = system: RERF-LC-KJ
Summary of the method: as §1

[19] = system: NCI-H1915
Summary of the method: as §1

[20] = system: H3255
Summary of the method: as §1

[21] = system: NCI-H2405
Summary of the method: as §1

[22] = system: COR-L 105
Summary of the method: as §1

Q: `O=c1cc(N2CCOCC2)oc2c(-c3cccc4c3sc3ccccc34)cccc12` + Cc1cc(Nc2cc(N3CCN(C)CC3)nc(Sc3ccc(NC(=O)C4CC4)cc3)n2)n[nH]1 [Tozasertib] (partner 0.1 µM) was tested. Which relative viability ([1]; first compound 0.01 µM) did it give?
A: The relative viability was 0.567.

Q: And the relative viability ([1]; first compound 0.03162 µM)?
A: The relative viability was 0.572.

Q: And the relative viability ([1]; first compound 0.1 µM)?
A: The relative viability was 0.575.

Q: What about the relative viability ([1]; first compound 0.3162 µM) of the same compound?
A: The relative viability was 0.535.

Q: And the relative viability ([1]; first compound 1 µM)?
A: Its relative viability is 0.577.

Q: What about the relative viability ([2]; first compound 0.01 µM) of the same compound?
A: The relative viability was 0.363.

Q: And the relative viability ([2]; first compound 0.03162 µM)?
A: The relative viability was 0.391.

Q: And the relative viability ([2]; first compound 0.3162 µM)?
A: Its relative viability is 0.31.

Q: And the relative viability ([2]; first compound 1 µM)?
A: Its relative viability is 0.351.

Q: What about the relative viability ([3]; first compound 0.01 µM) of the same compound?
A: Its relative viability is 0.618.

Q: What about the relative viability ([3]; first compound 0.03162 µM) of the same compound?
A: Its relative viability is 0.599.

Q: And the relative viability ([3]; first compound 0.1 µM)?
A: The relative viability was 0.538.

Q: What about the relative viability ([3]; first compound 0.3162 µM) of the same compound?
A: Its relative viability is 0.526.

Q: And the relative viability ([3]; first compound 1 µM)?
A: The relative viability was 0.549.

Q: And the relative viability ([4]; first compound 0.01 µM)?
A: The relative viability was 0.289.

Q: And the relative viability ([4]; first compound 0.03162 µM)?
A: Its relative viability is 0.247.

Q: What about the relative viability ([4]; first compound 0.1 µM) of the same compound?
A: The relative viability was 0.297.

Q: And the relative viability ([4]; first compound 0.3162 µM)?
A: The relative viability was 0.226.

Q: What about the relative viability ([4]; first compound 1 µM) of the same compound?
A: The relative viability was 0.25.

Q: And the relative viability ([5]; first compound 0.01 µM)?
A: The relative viability was 0.512.

Q: What about the relative viability ([5]; first compound 0.03162 µM) of the same compound?
A: Its relative viability is 0.56.

Q: What about the relative viability ([5]; first compound 0.1 µM) of the same compound?
A: Its relative viability is 0.579.

Q: And the relative viability ([5]; first compound 0.3162 µM)?
A: Its relative viability is 0.596.

Q: And the relative viability ([5]; first compound 1 µM)?
A: Its relative viability is 0.567.

Q: And the relative viability ([6]; first compound 0.01 µM)?
A: Its relative viability is 0.93.

Q: And the relative viability ([6]; first compound 0.03162 µM)?
A: Its relative viability is 0.916.

Q: And the relative viability ([6]; first compound 0.1 µM)?
A: The relative viability was 0.983.

Q: And the relative viability ([6]; first compound 0.3162 µM)?
A: The relative viability was 0.883.

Q: What about the relative viability ([6]; first compound 1 µM) of the same compound?
A: Its relative viability is 0.881.

Q: What about the relative viability ([7]; first compound 0.01 µM) of the same compound?
A: Its relative viability is 0.262.

Q: And the relative viability ([7]; first compound 0.03162 µM)?
A: Its relative viability is 0.246.

Q: What about the relative viability ([7]; first compound 0.1 µM) of the same compound?
A: Its relative viability is 0.28.

Q: And the relative viability ([7]; first compound 0.3162 µM)?
A: Its relative viability is 0.214.

Q: What about the relative viability ([7]; first compound 1 µM) of the same compound?
A: Its relative viability is 0.219.

Q: What about the relative viability ([8]; first compound 0.03162 µM) of the same compound?
A: The relative viability was 0.763.

Q: And the relative viability ([8]; first compound 0.1 µM)?
A: The relative viability was 0.701.

Q: And the relative viability ([8]; first compound 0.3162 µM)?
A: Its relative viability is 0.803.

Q: What about the relative viability ([8]; first compound 1 µM) of the same compound?
A: Its relative viability is 0.704.

Q: What about the relative viability ([9]; first compound 0.01 µM) of the same compound?
A: Its relative viability is 0.486.

Q: And the relative viability ([9]; first compound 0.03162 µM)?
A: Its relative viability is 0.46.

Q: And the relative viability ([9]; first compound 0.1 µM)?
A: The relative viability was 0.478.

Q: And the relative viability ([9]; first compound 0.3162 µM)?
A: Its relative viability is 0.443.

Q: And the relative viability ([9]; first compound 1 µM)?
A: Its relative viability is 0.445.

Q: What about the relative viability ([10]; first compound 0.01 µM) of the same compound?
A: Its relative viability is 0.781.

Q: And the relative viability ([10]; first compound 0.03162 µM)?
A: Its relative viability is 0.839.

Q: What about the relative viability ([10]; first compound 0.1 µM) of the same compound?
A: Its relative viability is 0.839.

Q: And the relative viability ([10]; first compound 0.3162 µM)?
A: The relative viability was 0.794.

Q: What about the relative viability ([10]; first compound 1 µM) of the same compound?
A: Its relative viability is 0.789.

Q: What about the relative viability ([11]; first compound 0.01 µM) of the same compound?
A: The relative viability was 0.38.

Q: What about the relative viability ([11]; first compound 0.03162 µM) of the same compound?
A: The relative viability was 0.409.

Q: What about the relative viability ([11]; first compound 0.1 µM) of the same compound?
A: Its relative viability is 0.418.

Q: What about the relative viability ([11]; first compound 0.3162 µM) of the same compound?
A: The relative viability was 0.438.

Q: And the relative viability ([11]; first compound 1 µM)?
A: Its relative viability is 0.442.

Q: And the relative viability ([12]; first compound 0.01 µM)?
A: Its relative viability is 0.232.

Q: What about the relative viability ([12]; first compound 0.03162 µM) of the same compound?
A: The relative viability was 0.209.

Q: What about the relative viability ([12]; first compound 0.1 µM) of the same compound?
A: Its relative viability is 0.198.

Q: And the relative viability ([12]; first compound 0.3162 µM)?
A: Its relative viability is 0.222.

Q: What about the relative viability ([12]; first compound 1 µM) of the same compound?
A: The relative viability was 0.209.

Q: What about the relative viability ([13]; first compound 0.01 µM) of the same compound?
A: Its relative viability is 0.369.

Q: And the relative viability ([13]; first compound 0.03162 µM)?
A: Its relative viability is 0.32.

Q: And the relative viability ([13]; first compound 0.1 µM)?
A: Its relative viability is 0.262.

Q: And the relative viability ([13]; first compound 0.3162 µM)?
A: Its relative viability is 0.295.

Q: What about the relative viability ([13]; first compound 1 µM) of the same compound?
A: Its relative viability is 0.226.

Q: What about the relative viability ([14]; first compound 0.01 µM) of the same compound?
A: The relative viability was 0.288.

Q: What about the relative viability ([14]; first compound 0.03162 µM) of the same compound?
A: The relative viability was 0.327.

Q: What about the relative viability ([14]; first compound 0.3162 µM) of the same compound?
A: The relative viability was 0.206.

Q: What about the relative viability ([14]; first compound 1 µM) of the same compound?
A: Its relative viability is 0.253.

Q: What about the relative viability ([15]; first compound 0.01 µM) of the same compound?
A: Its relative viability is 0.417.

Q: What about the relative viability ([15]; first compound 0.03162 µM) of the same compound?
A: Its relative viability is 0.359.

Q: And the relative viability ([15]; first compound 0.1 µM)?
A: Its relative viability is 0.417.

Q: And the relative viability ([15]; first compound 0.3162 µM)?
A: Its relative viability is 0.41.

Q: What about the relative viability ([15]; first compound 1 µM) of the same compound?
A: The relative viability was 0.452.

Q: What about the relative viability ([16]; first compound 0.01 µM) of the same compound?
A: Its relative viability is 0.367.

Q: And the relative viability ([16]; first compound 0.03162 µM)?
A: The relative viability was 0.356.

Q: And the relative viability ([16]; first compound 0.1 µM)?
A: Its relative viability is 0.335.

Q: And the relative viability ([16]; first compound 0.3162 µM)?
A: Its relative viability is 0.36.

Q: What about the relative viability ([16]; first compound 1 µM) of the same compound?
A: The relative viability was 0.362.

Q: What about the relative viability ([17]; first compound 0.01 µM) of the same compound?
A: Its relative viability is 0.386.

Q: What about the relative viability ([17]; first compound 0.03162 µM) of the same compound?
A: Its relative viability is 0.435.

Q: And the relative viability ([17]; first compound 0.1 µM)?
A: Its relative viability is 0.431.

Q: And the relative viability ([17]; first compound 0.3162 µM)?
A: Its relative viability is 0.426.

Q: What about the relative viability ([17]; first compound 1 µM) of the same compound?
A: Its relative viability is 0.389.

Q: What about the relative viability ([18]; first compound 0.01 µM) of the same compound?
A: Its relative viability is 0.482.

Q: What about the relative viability ([18]; first compound 0.03162 µM) of the same compound?
A: The relative viability was 0.576.

Q: What about the relative viability ([18]; first compound 0.1 µM) of the same compound?
A: Its relative viability is 0.496.

Q: What about the relative viability ([18]; first compound 0.3162 µM) of the same compound?
A: Its relative viability is 0.429.

Q: What about the relative viability ([18]; first compound 1 µM) of the same compound?
A: Its relative viability is 0.522.

Q: What about the relative viability ([19]; first compound 0.01 µM) of the same compound?
A: Its relative viability is 0.419.

Q: And the relative viability ([19]; first compound 0.03162 µM)?
A: The relative viability was 0.438.

Q: What about the relative viability ([19]; first compound 0.1 µM) of the same compound?
A: Its relative viability is 0.485.

Q: And the relative viability ([19]; first compound 0.3162 µM)?
A: The relative viability was 0.456.

Q: What about the relative viability ([19]; first compound 1 µM) of the same compound?
A: The relative viability was 0.422.

Q: And the relative viability ([20]; first compound 0.01 µM)?
A: The relative viability was 0.789.

Q: What about the relative viability ([20]; first compound 0.03162 µM) of the same compound?
A: Its relative viability is 0.484.

Q: And the relative viability ([20]; first compound 0.1 µM)?
A: The relative viability was 0.709.

Q: What about the relative viability ([20]; first compound 0.3162 µM) of the same compound?
A: The relative viability was 0.593.

Q: What about the relative viability ([20]; first compound 1 µM) of the same compound?
A: The relative viability was 0.606.

Q: What about the relative viability ([21]; first compound 0.01 µM) of the same compound?
A: The relative viability was 0.727.

Q: And the relative viability ([21]; first compound 0.03162 µM)?
A: Its relative viability is 0.753.

Q: What about the relative viability ([21]; first compound 0.1 µM) of the same compound?
A: The relative viability was 0.821.

Q: What about the relative viability ([21]; first compound 0.3162 µM) of the same compound?
A: The relative viability was 0.734.

Q: What about the relative viability ([21]; first compound 1 µM) of the same compound?
A: Its relative viability is 0.75.

Q: What about the relative viability ([22]; first compound 0.01 µM) of the same compound?
A: Its relative viability is 0.346.

Q: What about the relative viability ([22]; first compound 0.03162 µM) of the same compound?
A: The relative viability was 0.286.

Q: And the relative viability ([22]; first compound 0.1 µM)?
A: Its relative viability is 0.373.

Q: And the relative viability ([22]; first compound 0.3162 µM)?
A: The relative viability was 0.303.

Q: And the relative viability ([22]; first compound 1 µM)?
A: Its relative viability is 0.299.
